Test results: patent US20250163043A1 (TRANSTHERA SCIENCES (NANJING), INC., priority 2021, published 2025)
Like-named read-outs stand apart in the source and are kept apart here.

What was measured:
Assay type in all cases: biochemical
[1] = biological target: CDK1/CycE1 (Homo sapiens, UniProt P06493); assay: ADP-Glo kinase assay on CDK enzymatic activity, CDK1/CycE1
Experimental: (§1) Test samples: the compounds of the present invention, having structures shown above.
(§2) A 384-well white plate, a 96-well plate, a microplate oscillator, a centrifuge, and a microplate reader.
(§3) The compounds were dissolved in DMSO and diluted 4-fold in the 96-well plate to obtain stock solutions with 10 concentration gradients, and added into a 384-well plate system to obtain a series of 10 concentration gradients of compound solutions with final concentrations of 10 μM starting and 4-fold gradient decreasing. 1 μM AZD4573 was used as compound positive control (PC) and 0.5% DMSO as solvent vehicle control (VC), ten duplicated wells each for PC and VC.
(§4) 1 μL of compound solution and 2 μL of 2× kinase solution were transferred to each well, and the plate was centrifuged at 1000 g for 30 s and left at room temperature for 10 min. A mixture of 2× substrate and ATP was prepared in 1× kinase buffer. The reaction was started after adding 2 μL of substrate and ATP into the plate. The plate was centrifuged at 1000 g for 30 s. The assay plate was closed and left at room temperature for 60 min. The reaction system was added with 4 μL of ADP Glo reagent, centrifuged at 1000 rpm for 1 min, and incubated at room temperature for 40 min. The reaction system was added with 8 μL of kinase assay reagent, centrifuged at 1000 rpm for 1 min and incubated at room temperature for 40 min. The […] was read on Biotek.
(§5) The inhibition rate was calculated according to the following formula: […]
(§6) Lumcmpd: compound fluorescence reading; Lumpositive: average value of the fluorescence reading of positive compound control; Lumvehicle: average value of the fluorescence reading of solvent vehicle control.
(§7) IC50 values were fitted using GraphPad 7.0 based on inhibition rates of compounds at different concentrations.

[2] = biological target: CDK9/CycT1 (Homo sapiens, UniProt P50750); assay: ADP-Glo kinase assay on CDK enzymatic activity, CDK9/CycT1; conditions: 10 concentrations from 10 μM, 4-fold, 60 min room temperature
Source text: as §1
(§8) ADP-Glo Kinase Assay (ADP-Glo kinase kit), DMSO (dimethyl sulfoxide), CDK9/CycT1 (cyclin-dependent kinase 9/cyclin T1), CDK tide (cyclin-dependent kinase substrate peptide fragments), CDK1/CycE1 (cyclin-dependent kinase 1/cyclin E1), CDK2/CycA2 (cyclin-dependent kinase 2/cyclin A2), CDK3/CycE1 (cyclin-dependent kinase 3/cyclin E1), CDK4/CycD3 (cyclin-dependent kinase 4/cyclin D3), CDK5/p25NCK (cyclin-dependent kinase 5/p25), and AZD 4573.
as §2, §3, §4, §5, §6, §7

[3] = biological target: CDK2/CycA2 (Homo sapiens, UniProt P24941); assay: ADP-Glo kinase assay on CDK enzymatic activity, CDK2/CycA2; conditions: 10 concentrations from 10 μM, 4-fold, 60 min room temperature
Source text: as §1, §8, §2, §3, §4, §5, §6, §7

[4] = ADP-Glo, 10 concentrations from 10 μM, 4-fold, 60 min room temperature, read-out: CDK1/CycE1/nM (IC50)

CDK1/CycE1, sequence (P06493 whole entry, species assumed): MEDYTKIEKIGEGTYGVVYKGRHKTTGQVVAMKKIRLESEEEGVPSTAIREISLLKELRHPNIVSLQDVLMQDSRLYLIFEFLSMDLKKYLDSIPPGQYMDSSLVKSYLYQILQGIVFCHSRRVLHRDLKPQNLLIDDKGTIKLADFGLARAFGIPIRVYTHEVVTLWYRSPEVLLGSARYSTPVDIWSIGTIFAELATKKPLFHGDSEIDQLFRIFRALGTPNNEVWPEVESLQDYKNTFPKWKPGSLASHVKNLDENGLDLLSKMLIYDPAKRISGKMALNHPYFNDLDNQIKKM
CDK1/CycE1, sequence (P24864 whole entry partner, species assumed): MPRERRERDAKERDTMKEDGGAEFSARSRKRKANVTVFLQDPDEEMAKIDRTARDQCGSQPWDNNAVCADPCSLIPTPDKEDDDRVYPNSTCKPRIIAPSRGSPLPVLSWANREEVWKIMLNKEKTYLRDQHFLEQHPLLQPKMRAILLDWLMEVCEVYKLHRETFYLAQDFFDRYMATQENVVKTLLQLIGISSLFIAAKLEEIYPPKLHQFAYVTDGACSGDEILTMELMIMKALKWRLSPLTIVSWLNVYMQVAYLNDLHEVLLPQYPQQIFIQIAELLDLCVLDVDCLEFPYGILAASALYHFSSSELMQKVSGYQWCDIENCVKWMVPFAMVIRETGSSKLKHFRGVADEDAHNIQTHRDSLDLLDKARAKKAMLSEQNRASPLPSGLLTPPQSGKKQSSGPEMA
CDK9/CycT1, sequence (P50750 whole entry): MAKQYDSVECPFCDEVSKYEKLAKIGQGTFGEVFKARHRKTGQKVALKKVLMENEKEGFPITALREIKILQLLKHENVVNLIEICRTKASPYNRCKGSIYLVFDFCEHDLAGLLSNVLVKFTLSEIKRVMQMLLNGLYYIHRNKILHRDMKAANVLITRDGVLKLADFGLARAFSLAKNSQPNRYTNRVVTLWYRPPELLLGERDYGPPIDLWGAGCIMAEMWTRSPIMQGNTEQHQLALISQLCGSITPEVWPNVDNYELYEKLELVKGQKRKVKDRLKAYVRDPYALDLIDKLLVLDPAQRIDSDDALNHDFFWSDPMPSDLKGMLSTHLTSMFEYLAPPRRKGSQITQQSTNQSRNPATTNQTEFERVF
CDK9/CycT1, sequence (O60563 whole entry partner): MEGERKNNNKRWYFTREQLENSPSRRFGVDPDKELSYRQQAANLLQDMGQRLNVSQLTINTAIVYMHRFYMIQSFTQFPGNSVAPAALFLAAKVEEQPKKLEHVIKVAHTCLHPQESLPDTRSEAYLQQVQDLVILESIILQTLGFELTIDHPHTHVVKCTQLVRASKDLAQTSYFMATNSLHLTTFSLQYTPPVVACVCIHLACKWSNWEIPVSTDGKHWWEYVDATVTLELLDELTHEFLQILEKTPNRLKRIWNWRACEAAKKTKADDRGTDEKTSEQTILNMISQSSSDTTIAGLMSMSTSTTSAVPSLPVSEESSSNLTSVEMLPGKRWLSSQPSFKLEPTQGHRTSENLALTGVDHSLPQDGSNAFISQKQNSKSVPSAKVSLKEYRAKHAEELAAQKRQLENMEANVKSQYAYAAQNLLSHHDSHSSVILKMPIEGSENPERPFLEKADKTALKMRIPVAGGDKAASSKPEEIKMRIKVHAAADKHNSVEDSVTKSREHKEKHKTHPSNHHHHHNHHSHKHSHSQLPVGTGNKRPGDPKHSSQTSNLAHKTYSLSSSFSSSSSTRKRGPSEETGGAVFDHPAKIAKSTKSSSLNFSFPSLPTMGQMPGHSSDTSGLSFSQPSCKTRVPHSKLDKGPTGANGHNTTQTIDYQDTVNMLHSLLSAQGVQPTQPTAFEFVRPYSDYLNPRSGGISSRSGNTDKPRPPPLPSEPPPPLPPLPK

SMILES | IC50 [1, 4] [nM] | IC50 [2] [nM] | IC50 [3] [nM] | IC50 [1] [nM]
CC(C)Nc1nc(C#N)cc2cnc(N[C@H]3C[C@@H](O)C3)nc12 [Compound 133, 2-(((1s,3s)-3-hydroxycyclobutyl)amino)-8-(isopropylamino)pyrido[3,4-d]pyrimidine-6-carbonitrile] | 29 | 2 | 10 | –
CC(C)Nc1nc(C#N)cc2cnc(N[C@H]3C[C@H](O)C3)nc12 [Compound 134, 2-(((1r,3r)-3-hydroxycyclobutyl)amino)-8-(isopropylamino)pyrido[3,4-d]pyrimidine-6-carbonitrile] | 11 | 1 | 5 | –
CC(C)Nc1nc(C#N)cc2cnc(N[C@H]3CC[C@H](N(C)C)CC3)nc12 [Compound 138, 2-(((1r,4r)-4-(dimethylamino)cyclohexyl)amino)-8-(isopropylamino)pyrido[3,4-d]pyrimidine-6-carbonitrile] | 166 | 3 | 49 | –
CC(C)Nc1nc(C#N)cc2cnc(N[C@H]3CC[C@H](N4CCOCC4)CC3)nc12 [Compound 141, 8-(isopropylamino)-2-(((1r,4r)-4-morpholinocyclohexyl)amino)pyrido[3,4-d]pyrimidine-6-carbonitrile] | 197 | 2 | 23 | –
CC(C)Nc1nc(C(F)F)cc2cnc(Nc3cc(CS(C)(=N)=O)ccn3)cc12 (stereo not drawn) [Compound 163, ((2-((7-(difluoromethyl)-5-(isopropylamino)-2,6-naphthyridin-3-yl)amino)pyridin-4-yl)methyl)(methyl)sulfinylimine] | 31 | 2 | 7 | –
CC(C)Nc1nc(C#N)cc2cnc(N[C@H]3C[C@@H](N)C3)cc12 [Compound 164, 7-(((1s,3s)-3-aminocyclobutyl)amino)-1-(isopropylamino)-2,6-naphthyridine-3-carbonitrile] | 138 | 1 | 135 | –
CC(C)Nc1nc(C#N)cc2cnc(N[C@H]3C[C@H](O)C3)cc12 [Compound 166, 7-(((1r,3r)-3-hydroxycyclobutyl)amino)-1-(isopropylamino)-2,6-naphthyridine-3-carbonitrile] | 14 | 2 | 10 | –
CC(=O)N[C@H]1C[C@@H](Nc2cc3c(NC(C)C)nc(C#N)cc3cn2)C1 [Compound 167, N-((1s,3s)-3-((7-cyano-5-(isopropylamino)-2,6-naphthyridin-3-yl)amino)cyclobutyl)acetamide] | 55 | 2 | 19 | –
N#Cc1cc2cnc(N[C@H]3CCCNC3)cc2c(NC2CCCC2)n1 [Compound 168, (S)-1-(cyclopentylamino)-7-(piperidin-3-ylamino)-2,6-naphthyridine-3-carbonitrile] | 63 | 1 | 125 | –
N#Cc1cc2cnc(N[C@H]3CCCNC3)cc2c(N2CCCC2)n1 [Compound 169, (S)-7-(piperidin-3-ylamino)-1-(pyrrolidin-1-yl)-2,6-naphthyridine-3-carbonitrile] | 798 | 5 | 2210 | –
CC(C)Nc1nc(C#N)cc2cnc(Nc3cc(CS(C)(=N)=O)ccn3)cc12 (stereo not drawn) [Compound 170, 1-(isopropylamino)-7-((4-((S-methylsulfonimidoyl)methyl)pyridin-2-yl)amino)-2,6-naphthyridine-3-carbonitrile] | 144 | 4 | 34 | –
CCN(CC)c1nc(C#N)cc2cnc(N[C@H]3CCCNC3)cc12 [Compound 171, (S)-1-(diethylamino)-7-(piperidin-3-ylamino)-2,6-naphthyridine-3-carbonitrile] | 638 | 4 | 815 | –
CC(C)(C)Nc1nc(C#N)cc2cnc(N[C@H]3C[C@@H](N)C3)cc12 [Compound 172, 7-(((1s,3s)-3-aminocyclobutyl)amino)-1-(tert-butylamino)-2,6-naphthyridine-3-carbonitrile] | 395 | 1 | 287 | –
N#Cc1cc2cnc(N[C@H]3CC[C@H](N)C3)cc2c(N[C@@H]2CCOC2)n1 [Compound 173, 7-(((1S,3S)-3-aminocyclopentyl)amino)-1-(((R)-tetrahydrofuran-3-yl)amino)-2,6-naphthyridine-3-carbonitrile] | 952 | 4 | 436 | –
N#Cc1cc2cnc(N[C@H]3C[C@@H](N)C3)cc2c(N[C@@H]2CCOC2)n1 [Compound 174, 7-(((1s,3S)-3-aminocyclobutyl)amino)-1-(((R)-tetrahydrofuran-3-yl)amino)-2,6-naphthyridine-3-carbonitrile] | 871 | 2 | 510 | –
N#Cc1cc2cnc(N[C@H]3C[C@H](N)C3)cc2c(N[C@@H]2CCOC2)n1 [Compound 179, 7-(((trans)-3-aminocyclobutyl)amino)-1-(((R)-tetrahydrofuran-3-yl)amino)-2,6-naphthyridine-3-carbonitrile] | 272 | 1 | 144 | –
N#Cc1cc2cnc(N[C@H]3CCCNC3)cc2c(C2=CCCCC2)n1 [Compound 180, (S)-1-(cyclohex-1-en-1-yl)-7-(piperidin-3-ylamino)-2,6-naphthyridine-3-carbonitrile] | 204 | 7 | 844 | –
N#Cc1cc2cnc(N[C@H]3CCCNC3)cc2c(C2=CCCC2)n1 [Compound 181] | 518 | 7 | 153 | –
CC(C)Nc1nc(C#N)cc2cnc(N[C@H]3C[C@H](N)C3)cc12 [Compound 183, 7-(((1r,3r)-3-aminocyclobutyl)amino)-1-(isopropylamino)-2,6-naphthyridine-3-carbonitrile] | 50 | 1 | 28 | –
N#Cc1cc2cnc(N[C@H]3CCCNC3)cc2c(OC2CCCC2)n1 [Compound 185, (S)-1-(cyclopentyloxy)-7-(piperidin-3-ylamino)-2,6-naphthyridine-3-carbonitrile] | 134 | 3 | 356 | –
N#Cc1cc2cnc(N[C@H]3CCCNC3)cc2c(C2CCCC2)n1 [Compound 187, (S)-1-cyclopentyl-7-(piperidin-3-ylamino)-2,6-naphthyridine-3-carbonitrile] | 413 | 8 | 958 | –
CCOc1nc(C#N)cc2cnc(N[C@H]3C[C@H](N)C3)cc12 [Compound 191, 7-(((1r,3r)-3-aminocyclobutyl)amino)-1-ethoxy-2,6-naphthyridine-3-carbonitrile] | – | 5 | 1110 | 1950
CC(C)Nc1nc(C(F)F)cc2cnc(N[C@H]3C[C@H](N)C3)cc12 [Compound 206, N^7-((1r,3r)-3-aminocyclobutyl)-3-(difluoromethyl)-N^1-isopropyl-2,6-naphthyridine-1,7-diamine] | 25 | 1 | 6 | –
CC(C)Oc1nc(C#N)cc2cnc(N[C@H]3C[C@H](N)C3)cc12 [Compound 207, 7-(((1r,3r)-3-aminocyclobutyl)amino)-1-isopropoxy-2,6-naphthyridine-3-carbonitrile] | 126 | 1 | 29 | –
CC(C)Nc1nc(C#N)cc2cnc(N[C@H]3C[C@](C)(N)C3)cc12 [Compound 209, 7-((trans)-3-amino-3-methylcyclobutyl)amino-1-(isopropylamino)-2,6-naphthyridine-3-carbonitrile] | 170 | 2 | 306 | –
CC1(Nc2nc(C#N)cc3cnc(N[C@H]4C[C@](C)(N)C4)cc23)CC1 [Compound 211, 7-((trans)-3-amino-3-methylcyclobutyl)amino-1-((1-methylcyclopropyl)amino)-2,6-naphthyridine-3-carbonitrile] | 233 | 3 | 434 | –
CC(C)Nc1nc(C#N)cc2cnc(N[C@H]3CCCCNC3)nc12 [Compound C6, (S)-2-(azepan-3-ylamino)-8-(isopropylamino)pyrido[3,4-d]pyrimidine-6-carbonitrile] | 202 | 4 | 330 | –
CC(C)(C)Nc1nc(C#N)cc2cnc(N[C@H]3CCCNC3)nc12 [Compound C7, (S)-8-(tert-butylamino)-2-(piperidin-3-ylamino)pyrido[3,4-d]pyrimidine-6-carbonitrile] | 74 | 3 | 144 | –
